# Reference: patent US20140093884A1, “Process for Identifying Novel Anti-Inflammatory Molecules with Reduced Direct Transrepression of Genes Induced by Glucocorticoids” (UNIVERSITE DE STRASBOURG, priority 2011, published 2014)
# Key:
# [1] = system: GPX3 (glutathione peroxidase 3) gene, (+)GRE; assay: GPX3 transcript levels in mouse ear epidermis after topical treatment (Q-RT-PCR); type: in vivo; conditions: WT mice, ears, topical FA, FIG. 10
# From the text: (§1) Mice. […] Real time PCR. Total RNA was reverse transcribed using hexamers, followed by Q-PCR, as reported (Li et al., 2005). The GC agonist fluocinolone acetonide (FA) was applied to ears of mice concomitantly treated with the “low-calcemic” Vitamin D3 (VitD3) analog MC903 (Calcipotriol; hereafter called MC) to trigger TSLP expression (Li et al., 2006). […] As expected, the expression of the GC-inducible GPX3 (glutathione peroxidase 3) gene which harbours a (+)GRE (Tuckermann et al., 1999) was enhanced by FA (FIG. 10) and inhibited by RU co-treatment, while FA or RU had no effect on MC-dependent expression of the CYP24A1 gene (a VitD3 target) (FIG. 10).
# [2] = system: TSLP; assay: TSLP transcript levels in mouse ear epidermis after topical treatment (Q-RT-PCR); type: in vivo; conditions: WT mice
# From the text: Mice. […] Real time PCR. Total RNA was reverse transcribed using hexamers, followed by Q-PCR, as reported (Li et al., 2005). The GC agonist fluocinolone acetonide (FA) was applied to ears of mice concomitantly treated with the “low-calcemic” Vitamin D3 (VitD3) analog MC903 (Calcipotriol; hereafter called MC) to trigger TSLP expression (Li et al., 2006). […] As expected, the expression of the GC-inducible GPX3 (glutathione peroxidase 3) gene which harbours a (+)GRE (Tuckermann et al., 1999) was enhanced by FA (FIG. 10) and inhibited by RU co-treatment, while FA or RU had no effect on MC-dependent expression of the CYP24A1 gene (a VitD3 target) (FIG. 10). […] Although the basal TSLP level was similar in vehicle-treated WT and GR^ep−/− mice, FA blocked MC-induced TSLP expression in WT, but not in GR^ep−/− mice (not shown).
# [3] = system: TSLP; assay: Nuclear run-on assay of TSLP expression; type: in vivo, mouse
# From the text: Nuclear run-on, EMSA, 3C and Luciferase assays. Nuclear Run-on and EMSA (Carey and Smale., 2001), 3C (Liu et al., 2005) and Luciferase assays (Promega kit) were as described. […] Although the basal TSLP level was similar in vehicle-treated WT and GR^ep−/− mice, FA blocked MC-induced TSLP expression in WT, but not in GR^ep−/− mice (not shown).
# [4] = system: (+)GRE (PGL3(VDRE) (+)GRE luciferase reporter); assay: Luciferase reporter assay in A549 cells, PGL3(VDRE) (+)GRE vector; type: cell-based, human; conditions: FA
# Description: (§2) Luciferase reporter assay. A549 cells seeded on 24-well tissue culture plates overnight at 70% confluency were transfected with 100 ng pCMV β galactosidase, 200 ng pGL3 reporter plasmids and wherever indicated, with 600 ng pSG5 hVDR plasmid (Green et al., 1988) into each well and maintained in medium containing charcoal treated FCS. 24 hours post-transfection, medium was changed and different compounds were added to it for 6 hours. Final concentrations of the compounds are: FA, 500 nM; Dex or RU24858, 300 nM or 500 nM (wherever 300 nM Dex or RU was used, it is indicated in the figure, in all other cases, 500 nM concentration was used); active vitamin D3, 1 μM; IL-1β, 5 ng/ml; BAY 11-7082, 5 μM, JNK inhibitor II, 25 μM. Luciferase assay was carried out as instructed (Promega). Normalized values are reported as the mean±SEM; each value originates from at least three individual transfections with assays performed in duplicate. […]
# [5] = system: IR nGRE (pGL3(VDRE) IR1 nGRE luciferase reporter); assay: Luciferase reporter assay in A549 cells, pGL3(VDRE) IR nGRE plasmids; type: cell-based, human
# Description: Luciferase reporter assay. A549 cells seeded on 24-well tissue culture plates overnight at 70% confluency were transfected with 100 ng pCMV β galactosidase, 200 ng pGL3 reporter plasmids and wherever indicated, with 600 ng pSG5 hVDR plasmid (Green et al., 1988) into each well and maintained in medium containing charcoal treated FCS. 24 hours post-transfection, medium was changed and different compounds were added to it for 6 hours. […] Luciferase assay was carried out as instructed (Promega). Normalized values are reported as the mean±SEM; each value originates from at least three individual transfections with assays performed in duplicate.
# To investigate whether additional DNA elements could be required to generate a repressing activity, the TSLP IR1 nGRE was inserted upstream of an enhancerless SV40 early promoter located 5′ to the luciferase coding sequence of pGL3 vector, A VDRE separated from the IR1 nGRE by a 314 bp-long DNA segment devoid of any known transregulator binding site (not shown) was inserted to generate a luciferase-expressing reporter plasmid (pGL3(VDRE) IR1 nGRE, FIG. 4), which was transfected into A549 cells, followed by addition of VitD3 and/or FA.
# To investigate whether the 1 bp spacer between the inverted repeated motifs of TSLP IR1 nGRE was critical for its repressing function, pGL3-based luciferase plasmids containing the VDRE and TSLP nGRE motifs spaced by 0 to 5 bases (IR0 to IR5 nGREs) were transfected into A549 cells.
# [6] = system: CYP24A1 gene (a VitD3 target); assay: CYP24A1 transcript levels in mouse ear epidermis after topical treatment (Q-RT-PCR); type: in vivo; conditions: mouse ears, FIG. 10
# From the text: as §1
# [7] = system: VDRE reporter plasmid (IR nGRE element deleted); assay: Luciferase reporter assay in A549 cells, VDRE reporter without IR1 nGRE; type: cell-based, human; conditions: FA addition
# Description: as §2
smiles,measurement,setting,value
"CC1(C)O[C@@H]2C[C@H]3[C@@H]4C[C@H](F)C5=CC(=O)C=C[C@]5(C)[C@@]4(F)[C@@H](O)C[C@]3(C)[C@]2(C(=O)CO)O1 [FA, fluocinolone acetonide]",expression of GPX3 gene,[1],enhanced
same,"MC-induced TSLP expression, effect of FA",[2],blocked
same,inhibition of basal TSLP RNA level,"[2]; ears, topical FA",~50%
same,"MC-induced increase of TSLP RNA, effect of FA","[2]; ears, topical, MC903 co-treatment",fully blocked
same,nature of GR-mediated FA inhibition of TSLP expression,[3],transcriptional
same,luciferase expression when IR1 nGRE replaced by a (+)GRE,[4],increase
same,reporter genes containing the IR1 nGRE DBS of various genes,"[5]; 6 hours, FIG. 13",induces repression
same,repressing activity with mutant IR1 nGRE to which recombinant GR does not bind,[5]; FA,no FA-inducible repressing activity
same,basal and VDRE-mediated VitD3-induced luciferase expression in presence of IR1 nGRE,"[5]; pGL3(VDRE) IR1 nGRE, FA addition, FIG. 11",decreased expression
same,"change in basal and VitD3-induced luciferase activity for IR3, IR4 and IR5 nGREs",[5]; upon FA addition,no significant change
same,decrease in basal and VitD3-induced luciferase activity for IR1 and IR2 compared with IR0 nGRE,[5]; upon FA addition,stronger
same,effect on MC-dependent expression of the CYP24A1 gene,[6],no effect
same,luciferase expression in absence of IR1 nGRE,[7],did not affect
